The source of these data is patent US9663496B2, “AMPK-activating heterocyclic compounds and methods for using the same” (Rigel Pharmaceuticals, Inc., priority 2010, dated 2017).

pEC50: −log10 of the molar value. Some results are limits rather than exact numbers.

The target in this assay is AMPK. Put plainly: AMPK activation, enzyme-linked immunosorbent assay. Format: biochemical. Conditions: EC50 for AMPK activation, ELISA. The procedure, abridged: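 Compounds were tested for their capacity to activate the kinase using standard, commercially available kit reagents and procedures.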
On the technique in general: ELISA stands for enzyme-linked immunosorbent assay.
Take `O=C(NC1CCN(Cc2cc(F)cc(F)c2)CC1)c1ccc(C(=O)N2CCC(Oc3ccc(F)c(F)c3)CC2)cn1` [Compound 297, N-(1-(3,5-difluorobenzyl)piperidin-4-yl)-5-(4-(3,4-difluorophenoxy)piperidine-1-carbonyl)picolinamide]: the negative logarithm of the EC50 (pEC50) – broadly, the EC50 on a negative log10 scale, so that one unit is a factor of ten – is over 6.30.
Then `CC(=O)Nc1cccc(OC2CCN(C(=O)c3ccc(C(=O)NC4CCN(Cc5ccc(F)cc5)CC4)cn3)CC2)c1` [Compound 413, 6-(4-(3-acetamidophenoxy)piperidine-1-carbonyl)-N-(1-(4-fluorobenzyl)piperidin-4-yl)nicotinamide], with 5.30 to 6.00.
As to `N#Cc1ccc(CN2CCC(NC(=O)c3ccc(C(=O)Nc4cccc(Cc5ccccc5)c4)cn3)CC2)cc1` [Compound 5, N^2-(1-(4-cyanobenzyl)piperidin-4-yl)-N^5-(3-benzylphenyl)pyridine-2,5-dicarboxamide], the negative logarithm of the EC50 (pEC50) was 6.00 to 6.30.
The same measure for `CS(=O)(=O)c1ccc(OC2CCN(C(=O)c3ccc(C(=O)NC4CCN(Cc5cccc(OC(F)(F)F)c5)CC4)nc3)CC2)cc1` [Compound 242, 5-(4-(4-(methylsulfonyl)phenoxy)piperidine-1-carbonyl)-N-(1-(3-(trifluoromethoxy)benzyl)piperidin-4-yl)picolinamide]: over 6.30; for `C[S+]([O-])c1ccc(C(=O)C2CCN(C(=O)c3ccc(C(=O)NC4CC[N+]([O-])(Cc5ccc(C#N)cc5)CC4)nc3)CC2)cc1` (stereo not drawn) [Compound 374, 1-(4-cyanobenzyl)-4-(5-(4-(4-(methylsulfinyl)benzoyl)piperidine-1-carbonyl)picolinamido) piperidine 1-oxide]: under 5.00; for `O=C(Nc1ccc(-c2ccccc2)cc1)c1ccc(C(=O)N2CCN(Cc3ccc(F)cc3)CC2)cn1` [Compound 11]: over 6.30.
The same measure for `N#Cc1ccc(CN2CC[C@@H](NC(=O)c3ccc(C(=O)N4CCN(Cc5ccc(F)cc5)CC4)cn3)C2)cc1` [Compound 118, (R)-N-(1-(4-cyanobenzyl)pyrrolidin-3-yl)-5-(4-(4-fluorobenzyl)piperazine-1-carbonyl)picolinamide]: over 6.30; for `N#Cc1ccc(Cn2ccc(NC(=O)c3ccc(C(=O)N4CCN(Cc5ccc(F)cc5)CC4)cn3)n2)cc1` [Compound 9, N-(1-(4-cyanobenzyl)-1H-pyrazol-3-yl)-5-(4-(4-fluorobenzyl)piperazine-1-carbonyl)picolinamide]: over 6.30; for `CS(=O)(=O)Nc1ccc(OC2CCN(C(=O)c3ccc(C(=O)NC4CCN(Cc5ccc(C#N)cc5)CC4)cn3)CC2)cc1` [Compound 367, N-(1-(4-cyanobenzyl)piperidin-4-yl)-6-(4-(4-(methylsulfonamido)phenoxy)piperidine-1-carbonyl)nicotinamide]: under 5.00.
Then `COc1ccc(CC2CCN(C(=O)c3ccc(C(=O)NC4CCN(Cc5ccc(C#N)cc5)CC4)nc3)CC2)cc1F` [Compound 146, N-(1-(4-cyanobenzyl)piperidin-4-yl)-5-(4-(3-fluoro-4-methoxybenzyl)piperidine-1-carbonyl)picolinamide], with over 6.30; and `O=C(NC1CCN(Cc2ccccc2)CC1)c1ccc(Nc2ccc(Oc3ccccc3)cc2)cn1` [Compound 113, N-(1-benzylpiperidin-4-yl)-5-(4-phenoxyphenylamino) picolinamide], with 5.30 to 6.00.
In turn, `N#Cc1ccc(O[C@H]2CC[C@@H](NC(=O)c3ccc(C(=O)N4CCC(Oc5ccc(F)cc5)CC4)cn3)CC2)cc1` [Compound 167, N-((cis)-4-(4-cyanophenoxy)cyclohexyl)-5-(4-(4-fluorophenoxy)piperidine-1-carbonyl)picolinamide] gave a pEC50 of over 6.30.
The same measure for `O=C(Nc1ccc(-c2ccccc2)cc1)c1ccc(C(=O)NC2CCN(Cc3ccccc3)CC2)nc1` [Compound 105, N2-(1-benzylpiperidin-4-yl)-N5-(biphenyl-4-yl)pyridine-2,5-dicarboxamide]: under 5.00; for `N#Cc1ccc(C(=O)N2CCC(NC(=O)c3ccc(C(=O)N4CCN(Cc5ccc(F)cc5)CC4)cn3)CC2)cc1` [Compound 4, N-(1-(4-cyanobenzoyl)piperidin-4-yl)-5-(4-(4-fluorobenzyl)piperazine-1-carbonyl)picolinamide]: 6.00 to 6.30; for `CC1(C)CN(C(=O)c2ccc(C(=O)NC3CCN(Cc4ccc(C#N)cc4)CC3)nc2)CCN1Cc1ccc(F)cc1` [Compound 125, N-(1-(4-cyanobenzyl)piperidin-4-yl)-5-(4-(4-fluorobenzyl)-3,3-dimethylpiperazine-1-carbonyl)picolinamide]: over 6.30.
Take `COc1ccc(OC2CCN(C(=O)c3ccc(C(=O)N[C@H]4CC[C@@H](Oc5ccc(C(F)(F)F)cc5)CC4)nc3)CC2)cc1` [Compound 191, 5-(4-(4-methoxyphenoxy)piperidine-1-carbonyl)-N-((cis)-4-(4-(trifluoromethyl)phenoxy)cyclohexyl) picolinamide]: the pEC50 is over 6.30.
Then `N#Cc1ccc(Oc2ccc(NC(=O)c3ccc(C(=O)N4CCC(S(=O)(=O)c5ccc(F)cc5)CC4)nc3)cn2)cc1` [Compound 472, N-(6-(4-cyanophenoxy)pyridin-3-yl)-6-(4-(4-fluorophenylsulfonyl)piperidine-1-carbonyl)nicotinamide], with 5.30 to 6.00; and `N#Cc1ccc(OC2CCN(C(=O)c3ccc(C(=O)N[C@H]4CC[C@@H](Oc5ccc(C(F)(F)F)cc5)CC4)nc3)CC2)cc1` [Compound 193, 5-(4-(4-cyanophenoxy)piperidine-1-carbonyl)-N-((cis)-4-(4-(trifluoromethyl)phenoxy)cyclohexyl) picolinamide], with over 6.30; and `O=C(Nc1ccc(Oc2ccc(F)cc2)nc1)c1ccc(C(=O)N2CCC(C(=O)c3ccc(F)cc3F)CC2)nc1` [Compound 348, 6-(4-(2,4-difluorobenzoyl)piperidine-1-carbonyl)-N-(6-(4-fluorophenoxy)pyridin-3-yl)nicotinamide], with over 6.30.
Then `O=C(Nc1ccc(Oc2ccc(F)cc2)nc1)c1ccc(C(=O)N2CCC(C(=O)c3ccc(F)cc3)CC2)cn1` [Compound 272, 5-(4-(4-fluorobenzoyl)piperidine-1-carbonyl)-N-(6-(4-fluorophenoxy)pyridin-3-yl)picolinamide], with over 6.30; and `O=C(NC1CCN(Cc2cc(F)cc(F)c2)CC1)c1ccc(C(=O)N2CC(OCc3ccc(F)cc3)C2)cn1` [Compound 308, N-(1-(3,5-difluorobenzyl)piperidin-4-yl)-5-(3-(4-fluorobenzyloxy)azetidine-1-carbonyl)picolinamide], with over 6.30; and `N#Cc1ccc(CN2CCC(NC(=O)c3ccc(-c4cn(Cc5ccccc5)nn4)cn3)CC2)cc1` [Compound 121, 5-(1-benzyl-1H-1,2,3-triazol-4-yl)-N-(1-(4-cyanobenzyl)piperidin-4-yl)picolinamide], with 5.30 to 6.00.
The same measure for `O=C(Nc1ccc(Oc2ccc(F)cc2)nc1)c1ccc(C(=O)N2CCC(Oc3ccc(S(F)(F)(F)(F)F)cc3)CC2)nc1` [Compound 496, N-(6-(4-fluorophenoxy)pyridin-3-yl)-6-(4-(4-(pentafluorosulfanyl)phenoxy)piperidine-1-carbonyl)nicotinamide]: over 6.30; for `O=C(NC1CCN(Cc2ccc(F)cc2)CC1)c1ccc(C(=O)N2CCN(Cc3ccc(F)cc3)CC2)nc1` [Compound 328, 6-(4-(4-fluorobenzyl)piperazine-1-carbonyl)-N-(1-(4-fluorobenzyl)piperidin-4-yl)nicotinamide]: over 6.30.
